Measurements from ChEMBL document CHEMBL1146593, “Constituents of the stem bark of Pongamia pinnata with the potential to induce quinone reductase” (J Nat Prod, 2003).
Values after ≈ are worked out from the molar mass of the structure shown.

Key:
[1] = Inhibition of mouse Hepa-1c1c7 cells assessed as cell viability; format: cell-based
[2] = Chemoprevention index, ratio of IC50 for mouse Hepa-1c1c7 cells to drug level required to double NADPH:quinone reductase activity in mouse Hepa-1c1c7 cells; format: functional

## COc1cc(OC)c2c(c1C=O)O[C@H](c1ccccc1)CC2=O
[1]
  IC50: > 10 µg/mL
[2]
  Ratio: >3.9

## C[S+]([O-])CCCCN=C=S (stereo not given) [SULFORAPHANE]
[1]
  IC50: 2.1 µg/mL (≈ 11.8 µM)
[2]
  Ratio: 24.1

## COc1cc2c(c3oc(-c4ccccc4)cc(=O)c13)C=CC(C)(C)O2 [CANDIDIN]
[1]
  IC50: 4.5 µg/mL (≈ 13.5 µM)
[2]
  Ratio: 1

## CC1=C[C@@H]2[C@@H](CC1)[C@](C)(O)CC[C@H]2C(C)C
[1]
  IC50: > 5 µg/mL
[2]
  Ratio: >2.2

## C=C(C)[C@@H](O)Cc1c(OC)cc(OC)c2c1O[C@H](c1ccccc1)CC2=O
[1]
  IC50: 19.3 µg/mL (≈ 52.4 µM)
[2]
  Ratio: 4.4

## COc1cc2c(c(OC)c1C(=O)/C=C(\O)c1ccccc1)C=CC(C)(C)O2 [PRAECANSONE B]
[1]
  IC50: 6.5 µg/mL (≈ 17.7 µM)
[2]
  Ratio: 1.8

## CO/C(=C\C(=O)c1c(OC)cc2c(c1OC)C=CC(C)(C)O2)c1ccccc1
[1]
  IC50: 9.6 µg/mL (≈ 25.2 µM)
[2]
  Ratio: 8

## COc1cc(OC)c2c(c1CC=C(C)C)O[C@H](c1ccccc1)CC2=O [CANDIDONE]
[1]
  IC50: 4.1 µg/mL (≈ 11.6 µM)
[2]
  Ratio: 0.9

## COc1cc(OC)c2c(c1CC=C(C)C)O[C@H](c1ccc3c(c1)OCO3)CC2=O [PONGAPINONE B]
[1]
  IC50: 19.1 µg/mL (≈ 48.2 µM)
[2]
  Ratio: 7.6

## COc1cc2c(c(OC)c1C(=O)CC(=O)c1ccc3c(c1)OCO3)C=CC(C)(C)O2 [PONGAPINONE A]
[1]
  IC50: 23.8 µg/mL (≈ 58 µM)
[2]
  Ratio: 4.8
